# Test results as given in patent US8937063B2 (Trustees of Tufts College, priority 2010, dated 2015).
# What was measured:
# [1] = Storage stability of ARI-001 at 50° C., LC-MS; type: physicochemical; details: unregulated humidity
# Procedure: ARI-001 was synthesized as described above. Purity was determined independently before use in experiments by examination via liquid chromatography-mass spectroscopy (LC-MS). A sample of material was dissolved in water/acetonitrile and injected onto a Discovery C-18 reverse phase column. The mobile phase began as 2%:98% acetonitrile:water, which was held for three minutes, after which a linear gradient was started that ran over 6 minutes, increasing the percent of acetonitrile until a final ratio of 98%:2% acetonitrile:water was reached. This final ratio was held for 3 minutes. The major peak was identified as ARI-001.
# Stability was determined by storing ARI-001 under 50° C. with no specified humidity requirement. At various time points over the course of 3 months (90 days), a small sample (<5 mg) of ARI-001 was collected for analysis using LC-MS under the same conditions as used for purity determination (vide supra).
# [2] = system: high fat+fructose (HF/HS) diet hamsters; experiment: 18-day oral dosing lipid study in HF/HS hamsters; type: in vivo, male Golden Syrian hamsters
# Procedure: We examined the effects of diet modulation on the lipid profile of male Syrian Golden hamsters. Hamsters were ordered from Charles River Labs (Wilmington, Mass.), and requested to be 111-120 g in weight (correspondingly 56-61 days old). Hamsters were kept in cages of 4-5 per cage, and maintained on a standard light cycle of 12 hours on/12 hours off. All diets were obtained from Dyets, Inc. (Bethlehem, Pa.). “Normal Diet” was a standard rodent chow, catalog #5001, produced into pellets. Water and this standard chow diet were available to this group of hamsters ad libitum. Food was added to cages as needed, but no less frequently than twice per week. “High Fat Diet” was the same standard rodent chow supplemented with the following: 11.5% corn oil, 11.5% coconut oil, 0.5% cholesterol, and 0.25% deoxycholate. This is also available directly from Dyets, Inc., as catalog #611201. Both diets were ordered in 10 kg batches and stored at 4° C. for durations of the experiments (4-8 weeks), and at −20° C. for longer storage (up to six months). Water and this high fat diet were available to this group of hamsters ad libitum. The “High Fat+Fructose” group was fed the same fat-supplemented chow as the “high fat diet” group (#611201), but water was supplemented with fructose to a final concentration of 10%. Fructose was supplied from Now Foods (catalog #6931) and distributed by Lucky Vitamin (catalog #WB48432). Fructose water was prepared by adding 400 g of fructose to 4 L of water and stirring at room temperature until dissolved. Fructose water was stored at 4° C. until use. When provided to hamsters, fructose water was kept in a water bottle in the hamster cages at room temperature, exactly as standard water was. Fructose water and high fat chow were provided to this group of hamsters ad libitum. All animals remained on their respective diets for 21 days.
# To begin this experiment, hamsters were randomly assigned to groups defined by the diet modifications above. After a fixed time, blood was collected from hamsters (N=3-4) to determine the lipid contents of the plasma. Because of limitations in the ability to adequately collect blood from hamsters, all blood samples were obtained via a terminal cardiac puncture preceded by asphyxiation with carbon dioxide. Blood (approximately 2 mL volume) was collected with a 22 G needle into a 5 mL syringe and transferred to a K2EDTA tube. The samples were kept on ice until centrifugation (14,000 rpm for 10 minutes at 4° C.) to separate plasma. Plasma was then aliquoted to tubes for storage at −80° C. until analysis.
# Lipid parameters were determined using commercially available kits from Wako USA (Richmond, Va.) according to manufacturer's directions.
# Male Golden Syrian hamsters were purchased from Charles River Labs (111-120 g, 56-61 days) and acclimated to a high fat+fructose (herein, referred to as “HF/HS”) diet as described above for two weeks. Hamsters were assigned into cohorts by body weight after two weeks' acclimation to the diet. […] Hamsters were dosed once per day for a total of 18 days. All animals remained on the above-described HF/HS diet throughout the dosing period. Dosing solutions for each cohort were prepared for 7 days at a time, although enough was prepared to last for 8 days. Each solution was stored at room temperature between administrations. Cohorts were defined according to Table 2 below.
# GPR109A = molecular target: T1, GPR109A (Homo sapiens, UniProt Q8TDS4); experiment: PathHunter eXpress β-arrestin recruitment assay; type: cell-based; details: concentrations up to 10 mM, 90 minutes
# T1 construct: β-galactosidase enzyme fragment (ProLink-type complementation tag); expressed in transfected cells
# T1 sequence (Q8TDS4 whole entry, the tested form may be a part): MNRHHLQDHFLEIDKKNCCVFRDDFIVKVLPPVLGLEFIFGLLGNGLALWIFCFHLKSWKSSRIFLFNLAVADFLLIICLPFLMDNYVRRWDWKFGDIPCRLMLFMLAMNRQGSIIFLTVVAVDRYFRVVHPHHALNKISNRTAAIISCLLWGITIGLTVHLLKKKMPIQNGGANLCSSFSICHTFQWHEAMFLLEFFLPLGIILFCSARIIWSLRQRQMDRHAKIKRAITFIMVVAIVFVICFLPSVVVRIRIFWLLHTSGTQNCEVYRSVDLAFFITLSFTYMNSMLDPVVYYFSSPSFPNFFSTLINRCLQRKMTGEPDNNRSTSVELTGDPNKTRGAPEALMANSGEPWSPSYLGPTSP
# Description: Walters R W et al. (2009) J Clin Invest 119:1312-21. […] G protein-coupled receptor (GPCR) activity was detected by measuring the interaction of β-arrestin with the activated GPCR using […] enzyme fragment complementation.
# [3] = Human clinical trial, single oral doses: serum concentration; type: in vivo; details: serum, ARI-001 2000 mg single oral dose, preliminary, read-out: Cmax, serum
# Procedure: Five periods of single dose escalation, with 8 subjects per cohort (6 drug: 2 placebo) involve a total 40 subjects. Appropriately blinded matching placebos are provided. Cohort 1 receives 500 mg of ARI-001 formulated as a single oral tablet, plus eleven placebo tablets; Cohort 2, […] of ARI-001, plus ten placebo tablets; Cohort 3, […] of ARI-001, plus eight placebo tablets; Cohort 4, […] of ARI-001, plus four placebo tablets; Corhort 5, […] of ARI-001. Placebo-only subjects take twelve placebo tablets. Each tablet is a compressed, film-coated tablet suitable for oral administration.
# Pharmacokinetic samples are collected at 0-45 min pre-dose and at 0.5, 1, 1.5, 2, 4, 6, 8, 12, 24, 30 and 168 hours after dosing. […]
# […] […] Analysis of all samples is performed at a central laboratory.
# [4] = ARI-001 2240 mg/kg oral once daily 18 days, plasma, mean ± SD
# [5] = ARI-001 2240 mg/kg vs molar equivalent niacin 1200 mg/kg, 18 days
structure (smiles),measurement,setting,value
O=C(O)c1ccc(CCN2CCOCC2)nc1 [ARI-001],purity remaining on storage,[1]; 65 days,98.9%
same,purity remaining on storage,[1]; 90 days,95.9%
same,TC (total cholesterol),"[2]; ARI-001 2240 mg/kg (9.75 mmol/kg) oral gavage once daily 18 days, plasma, mean ± SD",343 ± 104 mg/dL
same,HDL/TC,"[2]; ARI-001 2240 mg/kg oral once daily 18 days, mean ± SD",0.48 ± 0.07
same,FFA (free fatty acids),[2]; [4],0.75 ± 0.15 mEq/L
same,HDL,[2]; [4],186 ± 74 mg/dL
same,LDL,[2]; [4],114 ± 33 mg/dL
same,TG (triglycerides),[2]; [4],138 ± 80 mg/dL
same,"efficacy relative to niacin, LDL cholesterol parameter",[2]; [5],at least 1.67 times
same,"efficacy relative to niacin, total cholesterol parameter",[2]; [5],at least 1.54 times
same,increase of absolute HDL value compared to vehicle,"[2]; ARI-001 2240 mg/kg, 18 days",33%
same,TC (total cholesterol),"[2]; ARI-001 […] (4.88 mmol/kg) oral gavage once daily 18 days, plasma, mean ± SD",653 ± 194 mg/dL
same,recruitment of β-arrestin to the membrane of cells expressing GPR109A,GPR109A,failed to recruit β-arrestin
same,Cmax,[3],~7500 ng/mL
